Experimental data published in publication PMC8584730, “Bacillus subtilis ANSB168 Producing D-alanyl-D-alanine Carboxypeptidase Could Alleviate the Immune Injury and Inflammation Induced by Ochratoxin A” (International Journal of Molecular Sciences, 2021).

Columns and labels:
DacA = target: T1, DacA (Bacillus subtilis, UniProt P08750); assay: HPLC-fluorescence of OTA hydrolysis; format: biochemical; settings: 37 °C, optimal pH 7.0; amide bond hydrolysis to ochratoxin alpha
T1 construct: mature form without signal peptide (forward primer encodes Met-Ala-Ser-Asp)

DacB = target: T2, DacB (Bacillus subtilis, UniProt P35150); assay: HPLC-fluorescence of OTA hydrolysis; format: biochemical; settings: 37 °C, optimal pH 7.5; amide bond hydrolysis to ochratoxin alpha
T2 construct: mature form without signal peptide (forward primer encodes Met-Ala-Ile-Asp-Val)
T2 sequence (P35150 28-382): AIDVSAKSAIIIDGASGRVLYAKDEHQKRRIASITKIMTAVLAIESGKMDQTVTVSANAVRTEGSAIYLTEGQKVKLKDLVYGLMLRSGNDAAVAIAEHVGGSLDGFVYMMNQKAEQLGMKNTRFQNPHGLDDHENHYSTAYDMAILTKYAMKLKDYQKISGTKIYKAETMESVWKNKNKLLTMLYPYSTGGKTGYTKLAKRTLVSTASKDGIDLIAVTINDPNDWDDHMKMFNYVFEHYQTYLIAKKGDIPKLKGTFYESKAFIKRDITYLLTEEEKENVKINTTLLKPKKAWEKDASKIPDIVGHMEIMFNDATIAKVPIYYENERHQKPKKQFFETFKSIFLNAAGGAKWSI

T1 sequence (P08750 32-443): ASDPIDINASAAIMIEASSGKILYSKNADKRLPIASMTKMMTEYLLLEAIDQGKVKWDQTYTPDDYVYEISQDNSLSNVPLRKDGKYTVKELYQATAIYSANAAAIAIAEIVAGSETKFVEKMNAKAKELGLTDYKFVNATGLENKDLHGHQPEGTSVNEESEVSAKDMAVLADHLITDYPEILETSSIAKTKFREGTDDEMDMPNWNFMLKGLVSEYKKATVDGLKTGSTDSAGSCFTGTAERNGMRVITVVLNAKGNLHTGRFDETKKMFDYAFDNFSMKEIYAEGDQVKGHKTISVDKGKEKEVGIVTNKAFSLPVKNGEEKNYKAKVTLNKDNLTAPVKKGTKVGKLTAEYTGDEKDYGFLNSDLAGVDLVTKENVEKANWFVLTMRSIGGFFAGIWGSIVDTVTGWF

Work on C[C@@H]1Cc2c(Cl)cc(C(=O)N[C@@H](Cc3ccccc3)C(=O)O)c(O)c2C(=O)O1 [Ochratoxin A, 7-carboxyl-5-chloro-8-hydroxyl-3,4-dihydro-3R-methyl-isocoumarin-7-L-β-phenylalanine] yielded a Km (DacA) of 6.79 µM and a Km (DacB) of 2.82 µM.
